Our source for the IC50 values is patent US20230295140A1, “INHIBITORS OF VAP-1” (Acucela Inc., priority 2021, published 2023).

Common to all, as to format: biochemical
The target in one test is rhMAO-A (Homo sapiens (Human), UniProt P21397). Nature of the test: MAO-Glo assay, MAO-A inhibition. The gist of the method:
(§1)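 Recombinant human MAO-A or MAO-B with luciferin-derivative substrate (10 μM for MAO-A, […]) in 100 mM HEPES pH 7.5, 5% glycerol, 1 h at room temperature; luminescence read 20 min after detection reagent.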

The target in the next test is rhMAO-B (Homo sapiens (Human), UniProt P27338). In words: MAO-Glo assay, MAO-B inhibition. The procedure, abridged:
as §1

The next test concerns the target rhVAP-1 (Homo sapiens (Human), UniProt Q16853). Nature of the test: VAP-1 fluorometric assay (Amplex Red/HRP, benzylamine substrate). The conditions noted are these: class symbols, ranges defined in μM. The procedure, abridged: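 Recombinant human VAP-1 oxidizes 50 μM benzylamine in 10 mM NaHCO3 pH 7.4 containing 0.05 mM Amplex Red and 0.5 U HRP, with inhibitor in 0.5% DMSO. After 30 min at 37 °C in the dark, resorufin fluorescence is read […], calibrated against an H2O2 standard curve.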

Where [1] appears, read: class symbols, ranges defined in μM.

Where a name gives a salt, the structure may show the parent alone.

rhMAO-A, sequence (P21397 whole entry): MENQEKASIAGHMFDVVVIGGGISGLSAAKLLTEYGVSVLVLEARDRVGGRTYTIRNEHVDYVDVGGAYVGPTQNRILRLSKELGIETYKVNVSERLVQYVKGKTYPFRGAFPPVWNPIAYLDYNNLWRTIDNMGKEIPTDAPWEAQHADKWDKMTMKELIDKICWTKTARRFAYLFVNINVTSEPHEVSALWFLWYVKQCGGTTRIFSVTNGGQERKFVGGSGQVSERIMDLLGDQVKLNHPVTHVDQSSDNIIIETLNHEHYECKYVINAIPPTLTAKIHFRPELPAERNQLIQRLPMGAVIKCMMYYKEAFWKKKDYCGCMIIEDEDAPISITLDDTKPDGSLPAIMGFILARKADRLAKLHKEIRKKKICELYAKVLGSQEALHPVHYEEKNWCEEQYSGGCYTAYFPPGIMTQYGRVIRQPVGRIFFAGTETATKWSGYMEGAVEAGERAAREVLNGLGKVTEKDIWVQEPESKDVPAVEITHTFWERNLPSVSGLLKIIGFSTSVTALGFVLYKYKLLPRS
rhMAO-B, sequence (P27338 whole entry): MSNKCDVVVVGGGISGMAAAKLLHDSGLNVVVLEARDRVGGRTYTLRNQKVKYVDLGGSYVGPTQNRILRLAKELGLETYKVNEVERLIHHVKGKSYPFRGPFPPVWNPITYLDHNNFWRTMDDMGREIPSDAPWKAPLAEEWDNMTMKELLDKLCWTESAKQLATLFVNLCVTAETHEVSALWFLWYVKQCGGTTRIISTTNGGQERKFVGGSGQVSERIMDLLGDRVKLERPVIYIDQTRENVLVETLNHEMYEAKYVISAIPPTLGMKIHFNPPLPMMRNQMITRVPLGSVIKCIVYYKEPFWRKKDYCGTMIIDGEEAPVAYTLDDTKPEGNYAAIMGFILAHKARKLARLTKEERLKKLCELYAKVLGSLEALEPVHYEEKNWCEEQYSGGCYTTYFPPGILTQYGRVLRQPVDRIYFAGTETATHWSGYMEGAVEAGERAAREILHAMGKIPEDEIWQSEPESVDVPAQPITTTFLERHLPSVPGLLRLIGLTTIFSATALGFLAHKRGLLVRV
rhVAP-1, sequence (Q16853 whole entry): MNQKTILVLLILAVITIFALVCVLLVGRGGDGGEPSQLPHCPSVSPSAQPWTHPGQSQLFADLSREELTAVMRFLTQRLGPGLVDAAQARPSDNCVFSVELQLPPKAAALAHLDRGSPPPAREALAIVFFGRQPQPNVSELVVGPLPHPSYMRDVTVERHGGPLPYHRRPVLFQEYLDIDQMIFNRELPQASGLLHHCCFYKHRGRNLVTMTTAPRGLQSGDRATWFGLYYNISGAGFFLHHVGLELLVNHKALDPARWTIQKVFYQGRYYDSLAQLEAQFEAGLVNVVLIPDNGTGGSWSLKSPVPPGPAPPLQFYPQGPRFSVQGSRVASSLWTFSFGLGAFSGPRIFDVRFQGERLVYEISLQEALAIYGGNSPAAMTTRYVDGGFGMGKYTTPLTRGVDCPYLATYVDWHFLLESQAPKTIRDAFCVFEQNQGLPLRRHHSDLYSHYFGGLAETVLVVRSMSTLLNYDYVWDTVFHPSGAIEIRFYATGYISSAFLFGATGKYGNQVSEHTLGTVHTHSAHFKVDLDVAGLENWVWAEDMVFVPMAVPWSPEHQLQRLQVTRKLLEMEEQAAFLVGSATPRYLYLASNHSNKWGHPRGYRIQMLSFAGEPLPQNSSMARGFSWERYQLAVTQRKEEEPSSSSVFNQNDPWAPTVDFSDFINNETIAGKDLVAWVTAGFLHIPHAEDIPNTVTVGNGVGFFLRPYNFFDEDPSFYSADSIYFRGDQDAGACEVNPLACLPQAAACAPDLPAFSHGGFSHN

As for `NC/C(=C/F)COc1ccc2nc(NC3CCC(O)CC3)oc2c1` (stereo not drawn) [Example 78, (Z)-4-((6-((2-(aminomethyl)-3-fluoroallyl)oxy)benzo[d]oxazol-2-yl)amino)cyclohexan-1-ol 4-methylbenzenesulfonate], the IC50 (usually the concentration needed to halve the response being measured) against rhMAO-A (bound printed in cell) is > 50 µM; against rhMAO-B (setting [1]), 1 to 10 µM; against rhVAP-1 it was < 0.1 µM.

Take `CNC(=O)[C@@H](Cc1ccccc1)Nc1nc2ccc(OC/C(=C\F)CN)cc2o1` [Example 80, (R,Z)-2-((6-((2-(aminomethyl)-3-fluoroallyl)oxy)benzo[d]oxazol-2-yl)amino)-N-methyl-3-phenylpropanamide 4-methylbenzenesulfonate]: the results for the IC50 against rhMAO-A (bound printed in cell), at rhMAO-B (bound printed in cell) and on rhVAP-1 were > 40 µM, > 40 µM and < 0.1 µM, respectively.

Consider `COCCCNc1nc2ccc(OC/C(=C\F)CN)cc2o1` [Example 81, (Z)-6-((2-(aminomethyl)-3-fluoroallyl)oxy)-N-(3-methoxypropyl)benzo[d]oxazol-2-amine 4-methylbenzenesulfonate], for which the IC50 at rhMAO-A (setting [1]) was 1 to 10 µM; on rhMAO-B (setting [1]), 1 to 10 µM; against rhVAP-1, < 0.1 µM.

As for `CCCCc1nc2c(F)cc(OC/C(=C/F)CN)cc2o1` [Example 82, (E)-2-(((2-butyl-4-fluorobenzo[d]-oxazol-6-yl)oxy)methyl)-3-fluoroprop-2-en-1-amine 4-methylbenzenesulfonate], the results for the IC50 against rhMAO-A (setting [1]), at rhMAO-B (setting [1]) and against rhVAP-1 were 1 to 10 µM, < 0.1 µM and < 0.1 µM, respectively.

Take `NC/C(=C/F)COc1ccc2nc(NCc3ccc(C(F)(F)F)nc3)oc2c1` [Example 83, (Z)-6-((2-(aminomethyl)-3-fluoroallyl)oxy)-N-((6-(trifluoromethyl)pyridin-3-yl)methyl)benzo[d]oxazol-2-amine 4-methylbenzenesulfonate]: the IC50 against rhMAO-A (setting [1]) was 10 to 30 µM; against rhMAO-B (setting [1]), 1 to 10 µM; against rhVAP-1, < 0.1 µM.

Take `NC/C(=C\F)COc1ccc2nc(NCc3ccc(C(F)(F)F)nc3)oc2c1` [Example 84, (E)-6-((2-(aminomethyl)-3-fluoroallyl)oxy)-N-((6-(trifluoromethyl)pyridin-3-yl)methyl)benzo[d]oxazol-2-amine 4-methylbenzenesulfonate]: the IC50 against rhMAO-A (bound printed in cell) was > 40 µM; against rhMAO-B (setting [1]) it was 1 to 10 µM; on rhVAP-1 it was < 0.1 µM.

`NC/C(=C\F)COc1ccc2nc(N3CCC(O)C3)oc2c1` (stereo not drawn) [Example 85, (E)-1-(6-((2-(aminomethyl)-3-fluoroallyl)oxy)benzo[d]oxazol-2-yl)pyrrolidin-3-ol 4-methylbenzenesulfonate]: the IC50 was 1 to 10 µM against rhMAO-A (setting [1]), 1 to 10 µM against rhMAO-B (setting [1]) and < 0.1 µM on rhVAP-1.

For `CC1CN(c2nc3ccc(OC/C(=C/F)CN)cc3o2)C(C)(C)C1` (stereo not drawn) [Example 86, (E)-3-fluoro-2-(((2-(2,2,4-trimethylpyrrolidin-1-yl)benzo[d]oxazol-6-yl)oxy)methyl)prop-2-en-1-amine 4-methylbenzenesulfonate], the IC50 at rhMAO-A (bound printed in cell) was > 50 µM; against rhMAO-B (setting [1]) it was 1 to 10 µM; against rhVAP-1, < 0.1 µM.

With `NC/C(=C\F)COc1ccc2nc(NC3CCC(O)C3)oc2c1` (stereo not drawn) [Example 87, (E)-3-((6-((2-(aminomethyl)-3-fluoroallyl)oxy)benzo[d]oxazol-2-yl)amino)cyclopentan-1-ol 4-methylbenzenesulfonate], the 50% inhibitory concentration (IC50) is 1 to 10 µM on rhMAO-A (setting [1]), 1 to 10 µM at rhMAO-B (setting [1]) and < 0.1 µM against rhVAP-1.

Take `NC/C(=C\F)COc1ccc2nc(NCCCO)sc2c1` [Example 88, (E)-3-((6-((2-(aminomethyl)-3-fluoroallyl)oxy)benzo[d]thiazol-2-yl)amino)propan-1-ol 4-methylbenzenesulfonate]: the IC50 is 1 to 10 µM at rhMAO-A (setting [1]), 1 to 10 µM against rhMAO-B (setting [1]) and < 0.1 µM against rhVAP-1.

Regarding `CCCCn1cnc2cc(OC/C(=C/F)CN)ccc21` [Example 89, (E)-2-(((1-butyl-1H-benzo[d]imidazol-5-yl)oxy)methyl)-3-fluoroprop-2-en-1-amine 4-methylbenzenesulfonate], the results for the IC50 against rhMAO-A (bound printed in cell), on rhMAO-B (setting [1]) and at rhVAP-1 were > 50 µM, 1 to 10 µM and < 0.1 µM, respectively.

As for `NC/C(=C\F)COc1ccc2nc(N3CCS(=O)(=O)CC3)oc2c1` [Example 90, (E)-4-(6-((2-(aminomethyl)-3-fluoroallyl)oxy)benzo[d]oxazol-2-yl)thiomorpholine 1,1-dioxide 4-methylbenzenesulfonate], the IC50 is > 50 µM on rhMAO-A (bound printed in cell), 1 to 10 µM against rhMAO-B (setting [1]) and < 0.1 µM on rhVAP-1.

Take `Cc1cc(CNc2nc3ccc(OC/C(=C/F)CN)cc3o2)cc(C)n1` [Example 91, (E)-6-((2-(Aminomethyl)-3-fluoroallyl)oxy)-N-((2,6-dimethylpyridin-4-yl)methyl)benzo[d]oxazol-2-amine trihydrochloride]: the values for the IC50 against rhMAO-A (bound printed in cell), against rhMAO-B (setting [1]) and on rhVAP-1 were > 50 µM, 1 to 10 µM and < 0.1 µM, respectively.

Regarding `C=C(CN)c1ccc2nc(CCCC)oc2c1` [Example 92, 2-(2-butylbenzo[d]oxazol-6-yl)prop-2-en-1-amine], the results for the IC50 at rhMAO-A (setting [1]), against rhMAO-B (setting [1]) and at rhVAP-1 were < 0.1 µM, < 0.1 µM and 0.1 to 1 µM, respectively.

Turning to `NC/C(=C/F)COc1ccc2nc(NCCC(Cl)CCO)oc2c1` (stereo not drawn) [Example 93, (Z)-5-((6-((2-(aminomethyl)-3-fluoroallyl)oxy)benzo[d]oxazol-2-yl)amino)-3-chloropentan-1-ol 4-methylbenzenesulfonate], the IC50 is 1 to 10 µM against rhMAO-A (setting [1]), 1 to 10 µM against rhMAO-B (setting [1]) and < 0.1 µM on rhVAP-1.

In the case of `NC/C(=C/F)COc1ccc2nc(NCc3ccncc3)oc2c1` [Example 94, (Z)-6-((2-(aminomethyl)-3-fluoroallyl)oxy)-N-(pyridin-4-ylmethyl)benzo[d]oxazol-2-amine 4-methylbenzenesulfonate], the results for the IC50 on rhMAO-A (bound printed in cell), at rhMAO-B (setting [1]) and on rhVAP-1 were > 50 µM, 0.1 to 1 µM and < 0.1 µM, respectively.

“(Z)-2-((6-((2-(aminomethyl)-3-fluoroallyl)oxy)benzo[d]oxazol-2-yl)amino)-N-methylacetamide (4-methylbenzenesulfonate) [Example 63]”: the IC50 on rhMAO-A (bound printed in cell) is > 40 µM; at rhMAO-B (bound printed in cell), > 40 µM; on rhVAP-1, < 0.1 µM.
